# Laboratory results: PMC7570844, “Skin Damages—Structure Activity Relationship of Benzimidazole Derivatives Bearing a 5-Membered Ring System” (Molecules, 2020)
# Several values for one entry are separate records, joined by “and”; a condition that tells them apart may be missing. Equal entries are not always repeated. Where two headings read alike, the source gives them in different places.
# How the values were obtained:
# [1] = system: HEK293T (Normal Kidney Epithelial Cells); experiment: Cell proliferation inhibition, non-cancer control cells; details: Homo sapiens, HEK-293T
# [2] = Ferric reducing antioxidant power (FRAP) test; details: mean ± SEM
# Microsporum gypseum = experiment: Antidermatophyte plaque growth inhibition; type: cell-based; details: Nannizzia gypsea; for inhibition at 100 µg/mL: read-out: Percent growth inhibition
# [3] = system: human cervical carcinoma cells (HeLa); experiment: Cell proliferation inhibition
# [4] = system: Candida albicans (ATCC 10231); experiment: Anti-Candida albicans broth microdilution MIC; details: Candida albicans, ATCC10231, 24 h
# [5] = DPPH radical scavenging test; details: mean ± SEM
# [6] = system: herpes simplex virus-1 (KOS); experiment: Antiviral activity in HEL cell cultures (CPE, MTS); type: cell-based; details: Human alphaherpesvirus 1, HEL cells
# [7] = system: herpes simplex virus-2 (G); experiment: Antiviral activity in HEL cell cultures (CPE, MTS); type: cell-based; details: Human alphaherpesvirus 2; Herpes simplex virus-2, HEL cells
# Epidermophyton floccosum = experiment: Antidermatophyte plaque growth inhibition; type: cell-based; details: for inhibition at 100 µg/mL: read-out: Percent growth inhibition
# [8] = system: Trichophyton mentagrophytes; experiment: Antidermatophyte plaque growth inhibition; type: cell-based; details: for inhibition at 100 µg/mL: read-out: Percent growth inhibition
# Microsporum canis = experiment: Antidermatophyte plaque growth inhibition; type: cell-based; details: for inhibition at 100 µg/mL: read-out: Percent growth inhibition
# [9] = system: human embryonic lung (HEL) cell cultures
# Human Coronavirus (229E) = experiment: microbe, parasite or virus in culture; type: cell-based; details: HEL, read-out: Antiviral EC50
# HeLa cell cultures = details: human
# Coxsackie virus B4 = experiment: Antiviral activity in HeLa cell cultures (CPE, MTS); type: cell-based; details: Enterovirus B; Coxsackie virus B4, HeLa cells
# [10] = UV filtering parameters of compounds in solution (MeOH, 290-400 nm)
# [11] = system: human T-lymphocyte cells (CEM); experiment: Cell proliferation inhibition
# Adeno virus-2 = experiment: Antiviral activity in HEL cell cultures (CPE, MTS); type: cell-based; details: Adeno virus-2, HEL cells
# [12] = system: herpes simplex virus-1 TK-KOS ACVr; experiment: microbe, parasite or virus in culture; type: cell-based; details: Human alphaherpesvirus 1, HEL, read-out: Antiviral EC50
# [13] = system: Respiratory syncytial virus; experiment: microbe, parasite or virus in culture; type: cell-based; details: human respiratory syncytial virus, HeLa cells, read-out: Antiviral EC50
# vaccinia virus = experiment: microbe, parasite or virus in culture; type: cell-based; details: Orthopoxvirus vaccinia, HEL, read-out: Antiviral EC50
# Trichophyton tonsurans = experiment: Antidermatophyte plaque growth inhibition; type: cell-based; details: for inhibition at 100 µg/mL: read-out: Percent growth inhibition
# [14] = system: human pancreatic carcinoma cells (Mia Paca-2); experiment: Cell proliferation inhibition
# [15] = system: vesicular stomatitis virus; experiment: microbe, parasite or virus in culture; type: cell-based; details: HeLa, read-out: Antiviral EC50
# [16] = system: human melanoma cells (SK-Mel 5); experiment: Cell proliferation inhibition
# [17] = system: M. gypseum, M. canis, T. mentagrophytes, T. tonsurans and E. floccosum; experiment: Antidermatophyte activity, all five dermatophytes taken together; type: cell-based; details: for inhibition at 100 µg/mL: read-out: Percentage of growth inhibition over the five dermatophytes
# [18] = UV filtering parameters of cosmetic formulation on PMMA plates (modified Diffey-Robson); type: physicochemical
# [19] = Photostability of formulations, solar simulator; details: formulation on PMMA plates
# [20] = M. gypseum, 100 µg/mL, '+' has no key
# [21] = E. floccosum, 100 µg/mL, '+' has no key
# [22] = T. mentagrophytes, 100 µg/mL, '+' has no key
# [23] = M. canis, 100 µg/mL, '+' has no key
# [24] = T. tonsurans, 100 µg/mL, '+' has no key
# [25] = after solar simulator irradiation
smiles,measurement,setting,value
"O=C(O)c1ccc2nc(-c3ccco3)[nH]c2c1 [Compound 14, 2-(furan-2-yl)-1H-benzimidazole-5-carboxylic Acid]",IC50,[1],> 100 µM
same,FRAP,[2],26.67 ± 2.89 µmolTE/g
same,inhibition at 100 µg/mL,Microsporum gypseum; [20],< 0%
same,IC50,[3],> 100 µM
same,MIC,[4],16 µg/mL
same,DPPH IC50,[5],1416.38 ± 21.40 µg/mL
same,EC50,[6],> 100 µM
same,EC50,[7],> 100 µM
same,inhibition at 100 µg/mL,Epidermophyton floccosum; [21],6.45 ± 1.47%
same,melting point,,> 250 °C
same,inhibition at 100 µg/mL,[8]; [22],< 0%
same,inhibition at 100 µg/mL,Microsporum canis; [23],18.7 ± 0.59%
same,Cytotoxic concentration,[9],> 100 µM
same,EC50,Human Coronavirus (229E),> 100 µM
same,Cytotoxic concentration,HeLa cell cultures,> 100 µM
same,EC50,Coxsackie virus B4,> 100 µM
same,SPF,[10],16.66±1.21
same,UVA/UVB,[10],0.5
same,UVAPF,[10],1.20±0.10
same,λc (critical wavelength),[10],332 nm
same,IC50,[11],75 ± 35 µM
same,EC50,Adeno virus-2,> 100 µM
same,EC50,[12],> 100 µM
same,EC50,[13],> 100 µM
same,EC50,vaccinia virus,> 100 µM
same,inhibition at 100 µg/mL,Trichophyton tonsurans; [24],< 0%
same,IC50,[14],> 100 µM
same,EC50,[15],> 100 µM
same,IC50,[16],> 100 µM
"O=S(=O)(O)c1ccc2[nH]c(-c3ccc[nH]3)nc2c1 [Compound 7, 2-(1H-pyrrol-2-yl)-1H-benzimidazole-5-sulfonic Acid]",IC50,[1],67 ± 47 µM
same,FRAP,[2],239.91 ± 1.79 µmolTE/g
same,inhibition at 100 µg/mL,Microsporum gypseum; [20],73 ± 3.67%
same,IC50,[3],> 100 µM
same,MIC,[4],64 µg/mL
same,DPPH IC50,[5],1093.09 ± 8.65 µg/mL
same,EC50,[6],> 100 µM
same,EC50,[7],> 100 µM
same,inhibition at 100 µg/mL,Epidermophyton floccosum; [21],52.5 ± 6.58%
same,melting point,,> 250 °C
same,inhibition at 100 µg/mL,"[17]; 100 µg/mL, all five dermatophytes",50 to 79%
same,inhibition at 100 µg/mL,[8]; [22],69 ± 1.84%
same,inhibition at 100 µg/mL,Microsporum canis; [23],72.1 ± 7.51%
same,Cytotoxic concentration,[9],> 100 µM
same,EC50,Human Coronavirus (229E),> 100 µM
same,Cytotoxic concentration,HeLa cell cultures,> 100 µM
same,EC50,Coxsackie virus B4,> 100 µM
same,SPF,[10],5.43±0.39
same,UVA/UVB,[10],0.2
same,UVAPF,[10],1.22±0.03
same,λc (critical wavelength),[10],345 nm
same,IC50,[11],31 ± 21 µM
same,EC50,Adeno virus-2,> 100 µM
same,EC50,[12],> 100 µM
same,EC50,[13],> 100 µM
same,EC50,vaccinia virus,> 100 µM
same,inhibition at 100 µg/mL,Trichophyton tonsurans; [24],56.6 ± 4.04%
same,IC50,[14],28 ± 10 µM
same,EC50,[15],> 100 µM
same,IC50,[16],> 100 µM
"c1coc(-c2nc3ccccc3[nH]2)c1 [Compound 11, 2-(furan-2-yl)-1H-benzimidazole]",IC50,[1],> 100 µM
same,FRAP,[2],4462.64 µmolTE/g and 4462.64 ± 18.29 µmolTE/g
same,IC50,Microsporum gypseum,1.54 ± 0.02 µg/mL
same,inhibition at 100 µg/mL,Microsporum gypseum,99 ± 0.28%
same,IC50,[3],> 100 µM
same,DPPH (% Inhibition),[5]; tested at 1 mg/mL,15.46 ± 0.98%
same,EC50,[6],> 100 µM
same,EC50,[7],> 100 µM
same,IC50,Epidermophyton floccosum,2.44 ± 0.05 µg/mL
same,inhibition at 100 µg/mL,Epidermophyton floccosum,97.9 ± 4.23%
same,Activity on dermatophytes (in words),[17]; 100 µg/mL,fungicide activity
same,IC50,[17]; read-out: IC50 range over the five dermatophytes,0.97 to 3.8 µg/mL
same,inhibition at 100 µg/mL,[17],~100%
same,SPF,[18]; 1% in formulation,6.84
same,UVA/UVB,[18]; 1% in formulation,0.69
same,UVAPF,[18]; 1% in formulation,1.94
same,λc,[18]; 1% in formulation,368 nm
same,SPF,[18]; 2% in formulation,10.39
same,UVA/UVB,[18]; 2% in formulation,0.13
same,UVAPF,[18]; 2% in formulation,1.53
same,λc,[18]; 2% in formulation,366 nm
same,SPF,[18]; 3% in formulation,11.15
same,UVA/UVB,[18]; 3% in formulation,0.18
same,UVAPF,[18]; 3% in formulation,1.82
same,λc,[18]; 3% in formulation,371 nm
same,IC50,[8],1.61 ± 0.1 µg/mL
same,inhibition at 100 µg/mL,[8],97.2 ± 4.53%
same,IC50,Microsporum canis,1.58 ± 0.06 µg/mL
same,inhibition at 100 µg/mL,Microsporum canis,98.3 ± 2.03%
same,Cytotoxic concentration,[9],> 100 µM
same,EC50,Human Coronavirus (229E),> 100 µM
same,Cytotoxic concentration,HeLa cell cultures,> 100 µM
same,EC50,Coxsackie virus B4,> 100 µM
same,SPF,[10],20.06±3.04
same,UVA/UVB,[10],0.3
same,UVAPF,[10],1.05±0.06
same,λc (critical wavelength),[10],333 nm
same,IC50,[11],> 100 µM
same,EC50,Adeno virus-2,> 100 µM
same,EC50,[12],> 100 µM
same,EC50,[13],> 100 µM
same,EC50,vaccinia virus,> 100 µM
same,% SPFeff (residual in vitro SPF after irradiation),[19]; [25],less than 80%
same,% UVA-PFeff (residual UVA-PF after irradiation),[19]; [25],less than 80%
same,Photostability (in words),"[19]; irradiated with solar simulator, photostable if % SPF and % PF-UVA at least 80%",photoinstable
same,IC50,Trichophyton tonsurans,1.89 ± 0.22 µg/mL
same,inhibition at 100 µg/mL,Trichophyton tonsurans,94.7 ± 5.63%
same,IC50,[14],> 100 µM
same,EC50,[15],> 100 µM
same,IC50,[16],> 100 µM
